Results on ten compounds are retold here after ChEMBL document CHEMBL1629501, “Regiospecific synthesis and biological evaluation of spirooxindolopyrrolizidines via [3+2] cycloaddition of azomethine ylide” (2010).

For experiment [1], the system named is Staphylococcus aureus. The experiment can be described thus: Antibacterial activity against Staphylococcus aureus ATCC 25825 after 24 hrs by twofold serial dilution method. To be noted: ATCC 25825, 24 h. The format is functional.
The test system of experiment [2] is Bacillus subtilis. Put plainly: Antibacterial activity against Bacillus subtilis ATCC 451 after 24 hrs by twofold serial dilution method. In kind it is functional. To be noted: ATCC 451, 24 h.
Experiment [3] concerns Salmonella typhi. Put plainly: Antibacterial activity against Salmonella typhi ATCC 24915 after 24 hrs by twofold serial dilution method. The settings on record: Salmonella enterica, ATCC 24915, 24 h. In kind it is functional, Salmonella enterica subsp. enterica serovar Typhi.
In experiment [4] the test system is Escherichia coli. The experiment can be described thus: Antibacterial activity against Escherichia coli ATCC 25835 after 24 hrs by twofold serial dilution method. The format is functional. The settings on record: ATCC 25835, 24 h.
The test system of experiment [5] is Klebsiella pneumoniae. Put plainly: Antibacterial activity against Klebsiella pneumoniae ATCC 15490 after 24 hrs by twofold serial dilution method. The format is functional. The settings on record: ATCC 15490, 24 h.
Experiment [6] has as its system Cryptococcus neoformans. Put plainly: Antifungal activity against Cryptococcus neoformans ATCC 3312 after 72 to 96 hrs by twofold serial dilution method. In kind it is functional.
For experiment [7], the system named is Candida albicans. Put plainly: Antifungal activity against Candida albicans ATCC 3122 by twofold serial dilution method. In kind it is functional.
Experiment [8] has as its system Rhizopus. The experiment can be described thus: Antifungal activity against Rhizopus sp. ATCC 2915 after 72 to 96 hrs by twofold serial dilution method. In kind it is functional.
In experiment [9] the test system is Aspergillus niger. The experiment can be described thus: Antifungal activity against Aspergillus niger ATCC 598 after 72 to 96 hrs by twofold serial dilution method. In kind it is functional.
Experiment [10] has as its system Aspergillus flavus. Put plainly: Antifungal activity against Aspergillus flavus ATCC 485 after 72 to 96 hrs by twofold serial dilution method. The format is functional.
Experiment [11] concerns Klebsiella pneumoniae. The experiment can be described thus: Antibacterial activity against Klebsiella pneumoniae ATCC 15490 at 200 ug/ml after 24 hrs by twofold serial dilution method. The format is functional, organism-based.

Structures are written as SMILES. In brackets after ≈: the same amount, converted by molar mass. Activity calls are given as the source filed them. No cut-off for these calls is given here.

As a reminder, the MIC is the lowest concentration found to suppress growth. Read a high MIC as a less susceptible organism. As for `O=C(c1cccs1)[C@H]1[C@H](c2ccc([N+](=O)[O-])cc2)C2CCCN2[C@]12C(=O)Nc1ccccc12` (stereo partly drawn), the MIC in experiment [1] came to 100 µg/mL (≈ 218 µM); in [2], 50 µg/mL (≈ 109 µM); in experiment [3], 100 µg/mL (≈ 218 µM); in experiment [4], 200 µg/mL (≈ 435 µM); in experiment [5], 50 µg/mL (≈ 109 µM); in [6], 100 µg/mL (≈ 218 µM). Further, the MIC in experiment [7] was found to be 200 µg/mL (≈ 435 µM); in experiment [8] it was 50 µg/mL (≈ 109 µM); in [9] it was 100 µg/mL (≈ 218 µM); in experiment [10], 200 µg/mL (≈ 435 µM).
Take `CN[C@@H]1[C@H](O[C@H]2[C@H](O[C@H]3[C@H](O)[C@@H](O)[C@H](N=C(N)N)[C@@H](O)[C@@H]3N=C(N)N)O[C@@H](C)[C@]2(O)C=O)O[C@@H](CO)[C@H](O)[C@H]1O` [STREPTOMYCIN]: the MIC in experiment [1] is 50 µg/mL (≈ 86 µM); in experiment [2], 12.5 µg/mL (≈ 21.5 µM); in experiment [3], 50 µg/mL (≈ 86 µM); in experiment [4], 12.5 µg/mL (≈ 21.5 µM); in experiment [5], 25 µg/mL (≈ 43 µM).
Consider `O=C(c1cccs1)[C@H]1[C@H](c2ccc(Cl)cc2)C2CCCN2[C@]12C(=O)Nc1ccccc12` (stereo partly drawn), for which the minimal inhibitory concentration (MIC) in [1] was 6.25 µg/mL (≈ 13.9 µM); in [2], 12.5 µg/mL (≈ 27.8 µM); in [3], 6.25 µg/mL (≈ 13.9 µM); in [4], 25 µg/mL (≈ 55.7 µM); in experiment [6] it was 12.5 µg/mL (≈ 27.8 µM); in [7] it was 25 µg/mL (≈ 55.7 µM). Besides, the figures for the minimum inhibitory concentration (MIC) in experiment [8], in [9] and in experiment [10] were 6.25 µg/mL (≈ 13.9 µM), 25 µg/mL (≈ 55.7 µM) and 100 µg/mL (≈ 223 µM), respectively. In experiment [11], the outcome was inactive.
`O=C(c1cccs1)[C@H]1[C@H](c2ccccc2)C2CCCN2[C@]12C(=O)Nc1ccccc12` (stereo partly drawn): the MIC in [1] stood at 50 µg/mL (≈ 121 µM); in experiment [2], 100 µg/mL (≈ 241 µM); in [3], 100 µg/mL (≈ 241 µM); in [4], 100 µg/mL (≈ 241 µM); in experiment [5], 200 µg/mL (≈ 482 µM); in [6], 50 µg/mL (≈ 121 µM). The MIC worked out at 100 µg/mL (≈ 241 µM) in [7], 200 µg/mL (≈ 482 µM) in [8] and 200 µg/mL (≈ 482 µM) in [10].
For `CN(C)c1ccc([C@@H]2C3CCCN3[C@]3(C(=O)Nc4ccccc43)[C@H]2C(=O)c2cccs2)cc1` (stereo partly drawn), the MIC is 200 µg/mL (≈ 437 µM) in experiment [1]; 50 µg/mL (≈ 109 µM) in experiment [2]; 100 µg/mL (≈ 219 µM) in [3]; 100 µg/mL (≈ 219 µM) in experiment [4]; 50 µg/mL (≈ 109 µM) in experiment [5]; 50 µg/mL (≈ 109 µM) in [6]. For the same compound, the MIC in experiment [7] is 100 µg/mL (≈ 219 µM); in experiment [8] it was 50 µg/mL (≈ 109 µM); in experiment [9] it was 100 µg/mL (≈ 219 µM); in [10] it was 200 µg/mL (≈ 437 µM).
Take `Cc1ccc([C@@H]2C3CCCN3[C@]3(C(=O)Nc4ccccc43)[C@H]2C(=O)c2cccs2)cc1` (stereo partly drawn): the minimum inhibitory concentration (MIC) in experiment [1] turned out to be 50 µg/mL (≈ 117 µM); in [2], 25 µg/mL (≈ 58.3 µM); in [3] it was 6.25 µg/mL (≈ 14.6 µM); in experiment [4], 50 µg/mL (≈ 117 µM); in experiment [5], 100 µg/mL (≈ 233 µM); in experiment [6], 100 µg/mL (≈ 233 µM). Also, the minimal inhibitory concentration (MIC) in experiment [7] stood at 100 µg/mL (≈ 233 µM); in [8], 100 µg/mL (≈ 233 µM); in experiment [10], 25 µg/mL (≈ 58.3 µM).
For `O=C(c1cccs1)[C@H]1[C@H](c2ccc(F)cc2)C2CCCN2[C@]12C(=O)Nc1ccccc12` (stereo partly drawn), the MIC in experiment [1] is 6.25 µg/mL (≈ 14.5 µM); in experiment [2], 25 µg/mL (≈ 57.8 µM); in [3], 6.25 µg/mL (≈ 14.5 µM); in experiment [4], 50 µg/mL (≈ 116 µM); in experiment [6], 25 µg/mL (≈ 57.8 µM); in [7], 6.25 µg/mL (≈ 14.5 µM). The MIC in experiment [8] is 6.25 µg/mL (≈ 14.5 µM); in experiment [9] it was 200 µg/mL (≈ 462 µM); in experiment [10] it was 100 µg/mL (≈ 231 µM). For the same compound, the outcome in experiment [11] was inactive.
In the case of `COc1ccc([C@@H]2C3CCCN3[C@]3(C(=O)Nc4ccccc43)[C@H]2C(=O)c2cccs2)cc1` (stereo partly drawn), the minimal inhibitory concentration (MIC) was determined as 6.25 µg/mL (≈ 14.1 µM) in experiment [1]; 50 µg/mL (≈ 112 µM) in experiment [2]; 100 µg/mL (≈ 225 µM) in [3]; 100 µg/mL (≈ 225 µM) in experiment [4]; 25 µg/mL (≈ 56.2 µM) in experiment [5]; 50 µg/mL (≈ 112 µM) in [6]. Further, the MIC amounted to 100 µg/mL (≈ 225 µM) in [7], 50 µg/mL (≈ 112 µM) in experiment [8], 100 µg/mL (≈ 225 µM) in experiment [9] and 25 µg/mL (≈ 56.2 µM) in [10].
For `O=C(c1cccs1)[C@H]1[C@H](c2cccc(Br)c2)C2CCCN2[C@]12C(=O)Nc1ccccc12` (stereo partly drawn), the MIC in experiment [1] is 25 µg/mL (≈ 50.7 µM); in experiment [2], 25 µg/mL (≈ 50.7 µM); in experiment [3], 100 µg/mL (≈ 203 µM); in [4], 50 µg/mL (≈ 101 µM); in [5], 100 µg/mL (≈ 203 µM); in experiment [6] it was 25 µg/mL (≈ 50.7 µM). The MIC in experiment [7] turned out to be 50 µg/mL (≈ 101 µM); in [8] it was 12.5 µg/mL (≈ 25.3 µM); in experiment [9] it was 100 µg/mL (≈ 203 µM); in [10], 200 µg/mL (≈ 405 µM).
Consider `C[C@@H]1[C@H](O)[C@@H](C)/C=C/C=C/C=C/C=C/C=C/C=C/C=C/[C@H](O[C@@H]2O[C@H](C)[C@@H](O)[C@H](N)[C@@H]2O)C[C@@H]2O[C@](O)(C[C@@H](O)C[C@@H](O)[C@H](O)CC[C@@H](O)C[C@@H](O)CC(=O)O[C@H]1C)C[C@H](O)[C@H]2C(=O)O` [AMPHOTERICIN B], for which the MIC came out at 25 µg/mL (≈ 27.1 µM) in [6]; 25 µg/mL (≈ 27.1 µM) in experiment [7]; 25 µg/mL (≈ 27.1 µM) in [8]; 50 µg/mL (≈ 54.1 µM) in experiment [9]; 50 µg/mL (≈ 54.1 µM) in [10].
